According to patent publication US20250290117A1, “MOLECULAR PHENOTYPIC ANTIMICROBIAL SUSCEPTIBILITY TESTING” (priority 2024, published 2025):

Tests used:
[1] = tested on: Escherichia coli; assay: Traditional culture-based antimicrobial susceptibility test; assay type: cell-based
Text: Table 3 illustrates the results of an example antimicrobial agent susceptibility test of the current application versus a traditional culture-based antimicrobial agent susceptibility test for multiple Escherichia coli isolates, in accordance with one or more embodiments of the disclosure. These specimens underwent extraction or DNA purification prior to PCR. As in Tables 1 and 2, the results of the test of the current application are similar to the results from the traditional test. […]
Table 8 illustrates the results of an example antimicrobial agent susceptibility test of the current application versus a traditional culture-based antimicrobial agent susceptibility test for a low level positive with <10,000 cells/mL in the original specimen. These specimens were tested with direct PCR (e.g., no extraction DNA purification step prior to PCR) after 16 hours of incubation. As in Tables 1, 2, 3, 5, and 7, the results of the test are similar to the traditional test. […]

[2] = tested on: pathogens of clinical samples; assay: Molecular phenotypic antimicrobial susceptibility test of clinical samples, extraction DNA purification step prior to PCR (Table 6); assay type: cell-based
Protocol: Detection of Molecular Phenotypic Antimicrobial Susceptibility. Disclosed herein are the methods for the detection of phenotypic antimicrobial susceptibility via molecular methods. The present invention describes how a specimen 100 with a known microbial load is incubated and then exposed to a panel of antimicrobial agents to determine sensitivity (prevention of growth) or resistance (allowance of growth) to the specific antimicrobial agents tested utilizing molecular methods.
Sample Collection. Specimens 100 are collected from patients using sterile collection processes that are employed in routine clinical care. Specimens are transported to the testing facility in boric acid preservative.
Preparation of the Specimens for Testing. […] The process for pathogen isolation includes steps of harvesting the pathogen (e.g., via centrifugation), isolating pathogen DNA via a DNA isolation and/or purification kit, and performing PCR on the pathogen DNA via PCR components (e.g., primers, enzymes, buffers) as would be known to the skilled artisan. […] This aliquot is used for antimicrobial susceptibility testing if indicated based on the pathogen detection results. […] Specimens 100 with lower pathogen loads could also be utilized in the antibiotic susceptibility phase of testing with or without a longer incubation period.
Preparation of Antimicrobial Susceptibility Testing Plates. Antimicrobial solutions are prepared at known concentrations. The specific antimicrobials and their concentrations are selected based on the pathogen of interest and the described antimicrobial resistance breakpoints for that specimen pathogen and antimicrobial combination. These antimicrobials have been selected based on those commonly utilized by healthcare providers in routine clinical care for the specific type of suspected infection. The number and types of antimicrobials utilized can be customized based on the infection source, pathogen detected, patient-specific factors such as allergies or other health conditions (e.g., chronic kidney disease or concurrent medication use), or healthcare provider preferences such as antimicrobial availability or cost.
The antimicrobial solutions are prepared in liquid culture media (such as Muller Hinton Broth) to achieve the desired antimicrobial concentration and are then stored at −80° C. until use. For a given specimen, each antimicrobial is tested at a single or multiple antimicrobial concentration(s) which is its established breakpoints for sensitivity. The antimicrobial solutions are prepared and plated out for each specific pathogen. […] This allows for evaluation of pathogen load when no antimicrobial is present.
Specimen Exposure to Antimicrobial Agents. The 1 mL aliquot of the specimen 100 previously mixed with culture media and incubated is obtained. Using optical density measurements as a guide, the specimen 100 is diluted to 0.5 McFarland.
Antimicrobial exposure plates are typically placed into an incubator for 12-16 hours.
Nucleic Acid Amplification of Antimicrobial Agent Exposed Pathogens. The antimicrobial exposure plate is removed after the period of incubation. The specimen then undergoes a purification or lysis step. For example, the specimen may undergo a purification step (e.g., magnetic bead-based or other separation protocol to isolate genetic material). In another example, the specimen may undergo a cell lysis step. For example, buffer (e.g., lysis buffer) may be added and incubated in the thermal cycler for preparation for direct PCR. Next, the specimen may undergo a polymerase chain reaction (PCR) testing protocol, whereby a semi-quantitative PCR method is utilized. This may be completed either with or without a specific extraction protocol step. The pathogens can be individually targeted and detected, or a universal genetic sequence can be utilized to detect the antimicrobial susceptibility of the specimen as a whole.

[3] = E. coli #1 - WDCM 00090 - 6.2×E3
[4] = E. coli #2 - WDCM 00090 - 6.2×E3
[5] = E. coli, clinical sample of r10-r24
[6] = E. coli, clinical sample of r10-r24, Ct Control Avg 18.112
[7] = E. coli, clinical sample of r158-r172
[8] = E. coli, clinical sample of r158-r172, Ct Control Avg 20.146
[9] = K. aerogenes, clinical sample of r136-r150
[10] = K. aerogenes, clinical sample of r136-r150, Ct Control Avg 19.994
[11] = K. pneumoniae, clinical sample of r121-r135
[12] = K. pneumoniae, clinical sample of r121-r135, Ct Control Avg 24.272
[13] = M. morganii, clinical sample of r55-r69
[14] = M. morganii, clinical sample of r55-r69, Ct Control Avg 28.86
[15] = M. morganii, clinical sample of r70-r84
[16] = M. morganii, clinical sample of r70-r84, Ct Control Avg 27.053
[17] = P. mirabilis, clinical sample of r25-r39
[18] = P. mirabilis, clinical sample of r25-r39, Ct Control Avg 26.064
[19] = P. mirabilis, clinical sample of r40-r54
[20] = P. mirabilis, clinical sample of r40-r54, Ct Control Avg 26.987

Row | Compound | Traditional Culture Result ([1]; E. coli isolate 1 (Table 3)) | Traditional Culture Result ([1]; E. coli isolate 2 (Table 3)) | Traditional Culture Result ([1]; E. coli isolate 3 (Table 3)) | Traditional Culture Result ([1]; E. coli isolate 4 (Table 3)) | Traditional Culture Result ([1]; E. coli isolate 5 (Table 3)) | Traditional Culture Result ([1]; E. coli isolate JJ1887) | Molecular Antibiotic Susceptibility Result [2, 5] | Ct [2, 6] | Molecular Antibiotic Susceptibility Result [2, 7] | Ct [2, 8] | Molecular Antibiotic Susceptibility Result [2, 9] | Ct [2, 10] | Molecular Antibiotic Susceptibility Result [2, 11] | Ct [2, 12] | Molecular Antibiotic Susceptibility Result [2, 13] | Ct [2, 14] | Molecular Antibiotic Susceptibility Result [2, 15] | Molecular Antibiotic Susceptibility Result [2, 17] | Ct [2, 18] | Molecular Antibiotic Susceptibility Result [2, 19] | other results
1 | CO/N=C(\C(=O)N[C@@H]1C(=O)N2C(C(=O)O)=C(CSc3nc(=O)c(=O)[nH]n3C)CS[C@H]12)c1csc(N)n1 [Ceftriaxone] | Resistant | Resistant | Resistant | Resistant | Sensitive | Resistant | Sensitive (Antimicrobial wells with pathogen load detected below the control wells (typically >2 cycle thresholds later) may be reported as Sensitive) | 26.029 | Sensitive (Antimicrobial wells with pathogen load detected below the control wells (typically >2 cycle thresholds later) may be reported as Sensitive) | 29.851 | Sensitive (Antimicrobial wells with pathogen load detected below the control wells (typically >2 cycle thresholds later) may be reported as Sensitive) | 33.124 | Sensitive (Antimicrobial wells with pathogen load detected below the control wells (typically >2 cycle thresholds later) may be reported as Sensitive) | 33.145 | Sensitive (Antimicrobial wells with pathogen load detected below the control wells (typically >2 cycle thresholds later) may be reported as Sensitive) | 35.749 | Sensitive (Antimicrobial wells with pathogen load detected below the control wells (typically >2 cycle thresholds later) may be reported as Sensitive) | Sensitive (Antimicrobial wells with pathogen load detected below the control wells (typically >2 cycle thresholds later) may be reported as Sensitive) | 29.277 | Sensitive (Antimicrobial wells with pathogen load detected below the control wells (typically >2 cycle thresholds later) may be reported as Sensitive) | Traditional Culture Results [1, 3]: Sensitive; Traditional Culture Results [1, 4]: Sensitive; Ct [2, 16]: 36.141; Ct [2, 20]: 32.789
2 | Piperacillin/Tazobactam | Sensitive | Sensitive | Sensitive | Sensitive | Sensitive | Sensitive | Sensitive (Antimicrobial wells with pathogen load detected below the control wells (typically >2 cycle thresholds later) may be reported as Sensitive) | 26.499 | Sensitive (Antimicrobial wells with pathogen load detected below the control wells (typically >2 cycle thresholds later) may be reported as Sensitive) | 30.693 | Sensitive (Antimicrobial wells with pathogen load detected below the control wells (typically >2 cycle thresholds later) may be reported as Sensitive) | 32.586 | Sensitive (Antimicrobial wells with pathogen load detected below the control wells (typically >2 cycle thresholds later) may be reported as Sensitive) | 34.274 | Sensitive (Antimicrobial wells with pathogen load detected below the control wells (typically >2 cycle thresholds later) may be reported as Sensitive) | 36.138 | Sensitive (Antimicrobial wells with pathogen load detected below the control wells (typically >2 cycle thresholds later) may be reported as Sensitive) | Sensitive (Antimicrobial wells with pathogen load detected below the control wells (typically >2 cycle thresholds later) may be reported as Sensitive) | 28.92 | Sensitive (Antimicrobial wells with pathogen load detected below the control wells (typically >2 cycle thresholds later) may be reported as Sensitive) | Traditional Culture Results [1, 3]: Sensitive; Traditional Culture Results [1, 4]: Sensitive; Ct [2, 16]: Undet; Ct [2, 20]: 33.895
3 | O=C(O)c1cn(C2CC2)c2cc(N3CCNCC3)c(F)cc2c1=O [Ciprofloxacin] | Resistant | Resistant | Resistant | Resistant | Sensitive | Resistant |  |  |  |  |  |  |  |  |  |  |  |  |  |  | 
4 | CN(C)[C@@H]1C(O)=C(C(N)=O)C(=O)[C@@]2(O)C(O)=C3C(=O)c4c(O)cccc4[C@@](C)(O)[C@H]3C[C@@H]12 [Tetracycline] |  |  |  |  |  |  | Sensitive (Antimicrobial wells with pathogen load detected below the control wells (typically >2 cycle thresholds later) may be reported as Sensitive) | 28.574 | Sensitive (Antimicrobial wells with pathogen load detected below the control wells (typically >2 cycle thresholds later) may be reported as Sensitive) | 34.28 | Sensitive (Antimicrobial wells with pathogen load detected below the control wells (typically >2 cycle thresholds later) may be reported as Sensitive) | 37.04 | Sensitive (Antimicrobial wells with pathogen load detected below the control wells (typically >2 cycle thresholds later) may be reported as Sensitive) | 30.426 | Resistant | 26.617 | Sensitive (Antimicrobial wells with pathogen load detected below the control wells (typically >2 cycle thresholds later) may be reported as Sensitive) | Resistant | 24.94 | Resistant | Molecular Antibiotic Susceptibility Result ([2]; E. faecalis, clinical sample of r93-r99): Resistant; Ct ([2]; E. faecalis, clinical sample of r93-r99, Ct Control Avg 22.987): 19.484; Molecular Antibiotic Susceptibility Result ([2]; E. faecalis, clinical sample of r100-r106): Resistant; Ct ([2]; E. faecalis, clinical sample of r100-r106, Ct Control Avg 23.073): 23.171; Ct ([2]; E. faecalis, clinical sample of r107-r113, Ct Control Avg 22.144): 28.949; Molecular Antibiotic Susceptibility Result ([2]; E. faecalis, clinical sample of r114-r120): Resistant; Ct ([2]; E. faecalis, clinical sample of r114-r120, Ct Control Avg 20.822): 21.77; Ct ([2]; E. faecalis, clinical sample of r151-r157, Ct Control Avg 20.56): 23.723; Ct [2, 20]: 23.424; Molecular Antibiotic Susceptibility Result ([2]; S. aureus, clinical sample of r85-r92): Resistant; Ct ([2]; S. aureus, clinical sample of r85-r92, Ct Control Avg 24.32): 15.029
